Reference: publication PMC4982551 (MedChemComm, 2016)

Target: mPTPB (Mycobacterium tuberculosis, UniProt I6WXK4)
Test: PTP activity assay with pNPP substrate, mPTPB
Format: biochemical
Settings: ratio of IC50 values

Sequence of mPTPB (I6WXK4 whole entry, looked up): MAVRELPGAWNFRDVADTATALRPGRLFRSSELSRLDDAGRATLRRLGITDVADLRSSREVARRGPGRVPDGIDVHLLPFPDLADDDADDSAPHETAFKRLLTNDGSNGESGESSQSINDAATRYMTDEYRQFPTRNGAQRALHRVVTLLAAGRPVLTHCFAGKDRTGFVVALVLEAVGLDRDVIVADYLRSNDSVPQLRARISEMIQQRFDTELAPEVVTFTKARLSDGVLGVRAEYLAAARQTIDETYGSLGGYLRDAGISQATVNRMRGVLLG

SMILES: Cc1ccc(S(=O)(=O)NNC(=O)COc2ccc3cc(C(O)(C(F)(F)F)C(F)(F)F)c(O)cc3c2)cc1 [7r]
- selectivity for mPTPB compared to SHP2, PTP1B, CD45, LYP, and FAP-1: more than 7 fold
